Measured values as given in patent US7897582B2, “Oligonucleotide compositions and methods for the modulation of the expression of B7 protein” (Isis Pharmaceuticals, Inc., priority 2003, dated 2011).
Strand notation (5' to 3'): a small letter for the sugar, then the base; units joined by * are phosphorothioate-linked, units joined directly phosphodiester-linked; [ ] holds rarer units or linkages, { } end groups; capitals alone tell only the bases. e = 2'-O-(2-methoxyethyl) (MOE); [5mC] = 5-methylcytosine; d = 2'-deoxy (DNA)

System: human B7.2 mRNA
Assay: Human B7.2 mRNA levels in THP-1 cells by quantitative real-time PCR (Example 27)
Assay type: cell-based
Parameters: concentration or dose not given beside the values
Text: In accordance with the present invention, an additional series of antisense compounds were designed to target different regions of the human B7.2 RNA, using published sequences (GenBank accession number U04343.1, incorporated herein as SEQ ID NO: 295, GenBank accession number BC040261.1, incorporated herein as SEQ ID NO: 296 and GenBank accession number NT—005543.12, a portion of which is incorporated herein as SEQ ID NO: 297). “Target site” indicates the first (5′-most) nucleotide number on the particular target sequence to which the compound binds. All compounds in Table 25 are chimeric oligonucleotides (“gapmers”) 20 nucleotides in length, composed of a central “gap” region consisting of ten 2′-deoxynucleotides, which is flanked on both sides (5′ and 3′ directions) by five-nucleotide “wings”. The wings are composed of 2′-methoxyethyl (2′-MOE)nucleotides. The internucleoside (backbone) linkages are phosphorothioate (P═S) throughout the oligonucleotide. All cytidine residues are 5-methylcytidines. The compounds were analyzed for their effect on human B7.2 mRNA levels in THP-1 cells by quantitative real-time PCR as described in other examples herein. Data are averages from three experiments. If present, “N.D.” indicates “no data”.

Row | Substance | % INHIB (inhibition of human B7.2 mRNA levels)
1 | 323631 (antisense eA*eG*eT*e[5mC]*eT*d[5mC]*dA*dT*dT*dG*dA*dA*dA*dT*dA*eA*eG*e[5mC]*eT*eT) [compound 323631] | 56%
2 | 323632 (antisense eA*eG*eG*eT*e[5mC]*dT*dG*d[5mC]*dA*dG*dT*d[5mC]*dT*d[5mC]*dA*eT*eT*eG*eA*eA) [compound 323632] | 41%
3 | 323633 (antisense e[5mC]*eT*eA*e[5mC]*eT*dA*dG*d[5mC]*dT*d[5mC]*dA*d[5mC]*dT*d[5mC]*dA*eG*eG*e[5mC]*eT*eT) [compound 323633] | 50%
4 | 323634 (antisense eA*eA*eA*eT*eA*d[5mC]*dT*dA*d[5mC]*dT*dA*dG*d[5mC]*dT*d[5mC]*eA*e[5mC]*eT*e[5mC]*eA) [compound 323634] | 30%
5 | 323635 (antisense e[5mC]*eT*eG*e[5mC]*e[5mC]*dA*dA*dA*dA*dT*dA*d[5mC]*dT*dA*d[5mC]*eT*eA*eG*e[5mC]*eT) [compound 323635] | 24%
6 | 323636 (antisense eT*eT*e[5mC]*eA*eG*dA*dA*d[5mC]*d[5mC]*dA*dA*dG*dT*dT*dT*eT*e[5mC]*e[5mC]*eT*eG) [compound 323636] | 23%
7 | 323637 (antisense e[5mC]*e[5mC]*eT*e[5mC]*eA*dT*dT*d[5mC]*dA*dG*dA*dA*d[5mC]*d[5mC]*dA*eA*eG*eT*eT*eT) [compound 323637] | 19%
8 | 323638 (antisense eG*eT*eA*eT*eA*d[5mC]*d[5mC]*dT*d[5mC]*dA*dT*dT*d[5mC]*dA*dG*eA*eA*e[5mC]*e[5mC]*eA) [compound 323638] | 20%
9 | 323639 (antisense eG*e[5mC]*e[5mC]*eT*eA*dA*dG*dT*dA*dT*dA*d[5mC]*d[5mC]*dT*d[5mC]*eA*eT*eT*e[5mC]*eA) [compound 323639] | 55%
10 | 323640 (antisense e[5mC]*eT*e[5mC]*eT*eT*dT*dG*d[5mC]*d[5mC]*dT*dA*dA*dG*dT*dA*eT*eA*e[5mC]*e[5mC]*eT) [compound 323640] | 28%
11 | 323641 (antisense e[5mC]*e[5mC]*e[5mC]*eA*eT*dA*dT*dA*d[5mC]*dT*dT*dG*dG*dA*dA*eT*eG*eA*eA*e[5mC]) [compound 323641] | 88%
12 | 323642 (antisense e[5mC]*eT*eT*eG*eT*dG*d[5mC]*dG*dG*d[5mC]*d[5mC]*d[5mC]*dA*dT*dA*eT*eA*e[5mC]*eT*eT) [compound 323642] | 27%
13 | 323643 (antisense eA*eT*e[5mC]*eA*eA*dA*dA*d[5mC]*dT*dT*dG*dT*dG*d[5mC]*dG*eG*e[5mC]*e[5mC]*e[5mC]*eA) [compound 323643] | 80%
14 | 323644 (antisense e[5mC]*e[5mC]*e[5mC]*eT*eT*dG*dT*d[5mC]*d[5mC]*dT*dT*dG*dA*dT*d[5mC]*eT*eG*eA*eA*eG) [compound 323644] | 71%
15 | 323645 (antisense eA*e[5mC]*eA*eA*eG*d[5mC]*d[5mC]*d[5mC]*dT*dT*dG*dT*d[5mC]*d[5mC]*dT*eT*eG*eA*eT*e[5mC]) [compound 323645] | 56%
16 | 323646 (antisense eT*eT*eG*eA*eT*dA*d[5mC]*dA*dA*dG*d[5mC]*d[5mC]*d[5mC]*dT*dT*eG*eT*e[5mC]*e[5mC]*eT) [compound 323646] | 33%
17 | 323647 (antisense eA*eT*eA*e[5mC]*eA*dT*dT*dG*dA*dT*dA*d[5mC]*dA*dA*dG*e[5mC]*e[5mC]*e[5mC]*eT*eT) [compound 323647] | 41%
18 | 323648 (antisense eT*eG*eG*eA*eT*dG*dA*dT*dA*d[5mC]*dA*dT*dT*dG*dA*eT*eA*e[5mC]*eA*eA) [compound 323648] | 31%
19 | 323649 (antisense eG*eA*eA*eT*eT*d[5mC]*dA*dT*d[5mC]*dT*dG*dG*dT*dG*dG*eA*eT*eG*e[5mC]*eG) [compound 323649] | 81%
20 | 323650 (antisense eG*eT*eT*e[5mC]*eA*dG*dA*dA*dT*dT*d[5mC]*dA*dT*d[5mC]*dT*eG*eG*eT*eG*eG) [compound 323650] | 92%
